pIC50, pKd: −log10 of the molar value.

Broadly, the pIC50 is −log10 of the IC50, conventionally taken in molar units. Broadly, the Cmax is the highest concentration seen after dosing. Broadly, the pKd is the negative decadic logarithm of the Kd, by convention in mol/L. Lower therefore signals a high Kd.

T3 sequence (O75116 whole entry): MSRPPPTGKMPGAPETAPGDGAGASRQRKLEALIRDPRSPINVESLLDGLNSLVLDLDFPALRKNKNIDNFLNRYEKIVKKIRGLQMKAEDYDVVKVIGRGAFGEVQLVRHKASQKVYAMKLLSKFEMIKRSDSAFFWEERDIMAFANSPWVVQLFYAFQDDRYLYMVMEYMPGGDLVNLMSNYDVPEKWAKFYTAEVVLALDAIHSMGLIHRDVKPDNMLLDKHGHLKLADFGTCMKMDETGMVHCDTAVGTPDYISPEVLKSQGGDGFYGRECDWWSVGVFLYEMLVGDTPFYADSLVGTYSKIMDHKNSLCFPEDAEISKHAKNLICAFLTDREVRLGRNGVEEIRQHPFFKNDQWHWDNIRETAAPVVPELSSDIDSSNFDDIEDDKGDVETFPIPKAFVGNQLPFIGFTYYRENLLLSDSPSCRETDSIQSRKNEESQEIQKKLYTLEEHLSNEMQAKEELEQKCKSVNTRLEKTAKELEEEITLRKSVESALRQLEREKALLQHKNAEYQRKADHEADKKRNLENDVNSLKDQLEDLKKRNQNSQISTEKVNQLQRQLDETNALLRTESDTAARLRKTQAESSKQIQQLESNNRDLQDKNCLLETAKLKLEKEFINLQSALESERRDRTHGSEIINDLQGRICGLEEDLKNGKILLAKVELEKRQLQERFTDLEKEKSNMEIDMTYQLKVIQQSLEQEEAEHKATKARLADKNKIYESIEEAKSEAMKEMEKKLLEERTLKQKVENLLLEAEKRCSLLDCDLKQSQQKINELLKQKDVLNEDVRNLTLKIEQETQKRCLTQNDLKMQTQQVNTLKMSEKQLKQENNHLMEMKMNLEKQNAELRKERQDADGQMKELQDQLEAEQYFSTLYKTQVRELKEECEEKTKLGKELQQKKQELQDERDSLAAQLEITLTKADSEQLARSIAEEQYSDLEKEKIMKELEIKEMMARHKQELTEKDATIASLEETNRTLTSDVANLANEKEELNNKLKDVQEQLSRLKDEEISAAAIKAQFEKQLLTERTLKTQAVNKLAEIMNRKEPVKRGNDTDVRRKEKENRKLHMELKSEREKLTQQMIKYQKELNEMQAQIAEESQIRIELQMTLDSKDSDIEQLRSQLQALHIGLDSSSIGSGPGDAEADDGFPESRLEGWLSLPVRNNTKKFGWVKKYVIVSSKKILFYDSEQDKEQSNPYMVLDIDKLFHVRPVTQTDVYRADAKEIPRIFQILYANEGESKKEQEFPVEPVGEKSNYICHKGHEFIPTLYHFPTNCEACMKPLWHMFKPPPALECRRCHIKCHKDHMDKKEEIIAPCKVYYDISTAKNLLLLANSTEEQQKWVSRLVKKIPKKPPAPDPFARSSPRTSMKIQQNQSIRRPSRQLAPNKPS

One data set concerns Mus musculus. Briefly: Reduction in dexamethasone-induced ocular hypertensive C57BL/6J-Tyr c-Brd x 129S5/SvEvBrd, F2 generation mouse assessed as intraocular pressure at 5 mg/ml, topical instillation measured after 2 hrs. The format is functional, Eye.
Details: not given
Regarding `COCCOCC1(C(=O)Nc2cccc(OC(=O)N(C)C)c2)CCN(c2ncnc3[nH]cc(C)c23)CC1`, the Activity is on record as -1.8 mmHg.
Still for that read-out and setting: as for `Cc1c[nH]c2ncnc(N3CCC(Cc4c[nH]cn4)(C(=O)Nc4cccc(OC(=O)N(C)C)c4)CC3)c12`, the figure is -3.5 mmHg; as for `Cc1c[nH]c2ncnc(N3CCC(CCN(C)C)(C(=O)Nc4cccc(OC(=O)N(C)C)c4)CC3)c12`, -3.4 mmHg; as for `Cc1c[nH]c2ncnc(N3CCC(CN)(C(=O)Nc4cccc(OC(=O)N(C)C)c4)CC3)c12` [LX-7101], -4.2 mmHg.

Test system in another data set: not listed separately
Put plainly: Stability of the compound in aqueous solution formulation at 60 degC after 14 days. The class given is physicochemical. Particulars: read-out: Stability.
In the case of `Cc1c[nH]c2ncnc(N3CCC(CN)(C(=O)Nc4cccc(OC(=O)N(C)C)c4)CC3)c12` [LX-7101], the remaining at 336 h was determined as 99%.

The target in another data set is T1, Rho-associated protein kinase 1 (Homo sapiens, UniProt Q13464). Briefly: Inhibition of human Rock1 assessed as incorporation of P33 from ATP into biotinylated-cofilin substrate by scintillation counting analysis in presence of 200 uM ATP.
T1 sequence (Q13464 whole entry): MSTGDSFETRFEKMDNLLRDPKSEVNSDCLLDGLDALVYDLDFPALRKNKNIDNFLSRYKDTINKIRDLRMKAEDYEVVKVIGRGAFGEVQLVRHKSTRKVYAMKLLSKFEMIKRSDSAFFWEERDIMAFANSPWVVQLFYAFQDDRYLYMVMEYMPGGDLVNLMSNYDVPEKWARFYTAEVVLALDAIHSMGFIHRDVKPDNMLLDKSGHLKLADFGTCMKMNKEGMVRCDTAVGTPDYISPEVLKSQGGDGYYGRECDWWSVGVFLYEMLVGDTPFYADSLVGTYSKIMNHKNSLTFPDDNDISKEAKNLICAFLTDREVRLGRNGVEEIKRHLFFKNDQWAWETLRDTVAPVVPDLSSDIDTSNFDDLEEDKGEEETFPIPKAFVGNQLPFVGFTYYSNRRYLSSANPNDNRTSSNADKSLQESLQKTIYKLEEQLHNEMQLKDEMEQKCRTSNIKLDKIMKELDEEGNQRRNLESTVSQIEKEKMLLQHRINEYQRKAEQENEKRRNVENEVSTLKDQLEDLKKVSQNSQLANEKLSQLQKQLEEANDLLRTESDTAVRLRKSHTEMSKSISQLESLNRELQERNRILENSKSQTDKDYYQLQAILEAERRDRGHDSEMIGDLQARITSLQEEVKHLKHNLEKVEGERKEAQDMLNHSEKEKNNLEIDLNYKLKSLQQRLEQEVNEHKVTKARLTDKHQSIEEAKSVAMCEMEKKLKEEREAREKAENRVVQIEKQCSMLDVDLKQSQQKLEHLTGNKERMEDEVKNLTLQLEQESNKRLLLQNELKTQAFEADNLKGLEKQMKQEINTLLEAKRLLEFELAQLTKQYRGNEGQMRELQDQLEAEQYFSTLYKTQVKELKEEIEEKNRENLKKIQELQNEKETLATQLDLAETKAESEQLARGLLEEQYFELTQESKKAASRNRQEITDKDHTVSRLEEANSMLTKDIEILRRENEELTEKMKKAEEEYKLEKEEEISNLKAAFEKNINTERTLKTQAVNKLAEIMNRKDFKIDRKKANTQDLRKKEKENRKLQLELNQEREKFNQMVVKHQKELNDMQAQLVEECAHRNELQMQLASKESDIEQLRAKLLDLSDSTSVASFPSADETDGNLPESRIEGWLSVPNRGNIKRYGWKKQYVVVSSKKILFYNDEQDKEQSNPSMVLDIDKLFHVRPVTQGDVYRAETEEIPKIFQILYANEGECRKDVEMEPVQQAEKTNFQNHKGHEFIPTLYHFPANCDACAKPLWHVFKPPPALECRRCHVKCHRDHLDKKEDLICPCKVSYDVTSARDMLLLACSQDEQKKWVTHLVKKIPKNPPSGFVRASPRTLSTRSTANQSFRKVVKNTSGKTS
Details: not given
On to `Cc1c[nH]c2ncnc(N3CCC(CN)(C(=O)Nc4cccc(OC(=O)N(C)C)c4)CC3)c12` [LX-7101], for which the pIC50 is 5.66.

A further data set has as its target T1, Rho-associated protein kinase 1. Put plainly: Inhibition of human Rock1 assessed as incorporation of P33 from ATP into biotinylated-cofilin substrate by scintillation counting analysis in presence of 2 uM ATP.
Details: not given
For the compound `COCCOCC1(C(=O)Nc2cccc(OC(=O)N(C)C)c2)CCN(c2ncnc3[nH]cc(C)c23)CC1`, the pIC50 is below 5.55.
Turning to `Cc1c[nH]c2ncnc(N3CCC(Cc4c[nH]cn4)(C(=O)Nc4cccc(OC(=O)N(C)C)c4)CC3)c12`, the pIC50 was 6.29.
For the compound `Cc1c[nH]c2ncnc(N3CCC(CCN(C)C)(C(=O)Nc4cccc(OC(=O)N(C)C)c4)CC3)c12`, the pIC50 is 6.86.
Still for that read-out and setting: as for `Cc1c[nH]c2ncnc(N3CCC(CN)(C(=O)Nc4cccc(OC(=O)N(C)C)c4)CC3)c12` [LX-7101], the figure is 7.16.

Test system in the next data set: not listed separately
Put plainly: Stability of the compound in 1:1 H2O/MeOH assessed as decomposition measured at 60 degC after 24 hrs by HPLC. The format is physicochemical.
Details: not given
In the case of `Cc1c[nH]c2ncnc(N3CCN(C(=O)Nc4ccccc4)[C@@H](C)C3)c12`, the Stability entry is “Unstable”.
On the same count and under the same terms, as for `Cc1c[nH]c2ncnc(N3CCN(C(=O)Cc4ccccc4)[C@@H](C)C3)c12`, the entry is “Stable”.

Test system in the next data set: not listed separately
Briefly: Cmax in rat dosed topically. The class given is ADME, organism-based. Particulars: in vivo, topical or ocular.
The compound `Cc1c[nH]c2ncnc(N3CCC(CN)(C(=O)Nc4cccc(OC(=O)N(C)C)c4)CC3)c12` [LX-7101] came in with a Cmax of 12 nM.

The target of the next data set is T2, LIM domain kinase 2 (Homo sapiens, UniProt P53671). Put plainly: Inhibition of human full-length LIMK2 assessed as incorporation of P33 from ATP into biotinylated-cofilin substrate by scintillation counting analysis in presence of 200 uM ATP.
T2 sequence (P53671 whole entry, the tested form may be a part): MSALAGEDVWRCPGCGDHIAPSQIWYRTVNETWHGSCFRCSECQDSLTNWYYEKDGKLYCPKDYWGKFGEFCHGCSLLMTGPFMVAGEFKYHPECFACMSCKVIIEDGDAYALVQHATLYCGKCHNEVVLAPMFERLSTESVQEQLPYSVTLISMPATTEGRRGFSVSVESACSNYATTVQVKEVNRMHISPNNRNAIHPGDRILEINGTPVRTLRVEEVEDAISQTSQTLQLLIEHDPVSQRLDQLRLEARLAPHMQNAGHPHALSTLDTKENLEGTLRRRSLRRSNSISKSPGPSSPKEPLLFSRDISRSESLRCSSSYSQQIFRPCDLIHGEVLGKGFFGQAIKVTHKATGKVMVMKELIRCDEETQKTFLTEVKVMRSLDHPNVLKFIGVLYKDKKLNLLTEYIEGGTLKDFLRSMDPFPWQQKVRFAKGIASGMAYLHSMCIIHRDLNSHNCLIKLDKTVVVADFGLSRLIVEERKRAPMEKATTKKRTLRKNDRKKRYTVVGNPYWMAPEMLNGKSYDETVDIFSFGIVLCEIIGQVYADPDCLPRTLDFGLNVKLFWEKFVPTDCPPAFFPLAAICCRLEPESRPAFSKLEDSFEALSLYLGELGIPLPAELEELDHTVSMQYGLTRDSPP
Details: not given
As to `Cc1c[nH]c2ncnc(N3CCC(CN)(C(=O)Nc4cccc(OC(=O)N(C)C)c4)CC3)c12` [LX-7101], the negative-log IC50 (pIC50) was 8.12.

A further data set concerns the target T3, Rho-associated protein kinase 2 (Homo sapiens, UniProt O75116). Briefly: Inhibition of human Rock2 assessed as incorporation of P33 from ATP into biotinylated-cofilin substrate by scintillation counting analysis in presence of 2 uM ATP.
Details: not given
Take `Cc1c[nH]c2ncnc(N3CCC(CN)(C(=O)Nc4cccc(OC(=O)N(C)C)c4)CC3)c12` [LX-7101]: the pIC50 was 7.49.

The target of a further data set is LIM domain kinase 1 (Homo sapiens, UniProt P53667). Briefly: Inhibition of human LIMK1 assessed as incorporation of P33 from ATP into biotinylated-cofilin substrate by scintillation counting analysis in presence of 2 uM ATP.
Chain of LIM domain kinase 1 (P53667 whole entry, the tested form may be a part): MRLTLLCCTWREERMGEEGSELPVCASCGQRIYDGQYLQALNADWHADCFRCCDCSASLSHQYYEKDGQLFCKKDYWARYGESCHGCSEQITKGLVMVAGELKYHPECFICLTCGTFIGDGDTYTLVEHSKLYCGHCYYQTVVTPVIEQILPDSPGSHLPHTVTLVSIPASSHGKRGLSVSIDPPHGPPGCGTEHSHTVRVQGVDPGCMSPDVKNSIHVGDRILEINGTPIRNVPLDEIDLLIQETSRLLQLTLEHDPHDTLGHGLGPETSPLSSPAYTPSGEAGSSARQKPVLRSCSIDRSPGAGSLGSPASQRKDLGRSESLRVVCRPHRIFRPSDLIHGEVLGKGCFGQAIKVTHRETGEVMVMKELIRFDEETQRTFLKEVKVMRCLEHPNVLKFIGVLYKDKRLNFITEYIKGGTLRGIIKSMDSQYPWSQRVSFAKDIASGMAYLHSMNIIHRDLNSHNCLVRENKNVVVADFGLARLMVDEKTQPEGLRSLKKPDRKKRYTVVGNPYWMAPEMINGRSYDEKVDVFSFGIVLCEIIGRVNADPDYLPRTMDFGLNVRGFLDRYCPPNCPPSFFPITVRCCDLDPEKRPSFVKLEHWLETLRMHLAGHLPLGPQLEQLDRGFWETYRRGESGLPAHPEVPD
Details: not given
Turning to `Cc1c[nH]c2ncnc(N3CCC(CCN(C)C)(C(=O)Nc4cccc(OC(=O)N(C)C)c4)CC3)c12`, the negative-log IC50 (pIC50) is 6.87.

Another data set has as its target T3, Rho-associated protein kinase 2. Briefly: Binding affinity to human Rock2.
Details: not given
`Cc1c[nH]c2ncnc(N3CCC(CN)(C(=O)Nc4cccc(OC(=O)N(C)C)c4)CC3)c12` [LX-7101] gave a negative-log Kd (pKd) above 6.00.

The target is the same in another data set. Briefly: Inhibition of human Rock2 assessed as incorporation of P33 from ATP into biotinylated-cofilin substrate by scintillation counting analysis in presence of 200 uM ATP.
Details: not given
In the case of `Cc1c[nH]c2ncnc(N3CCC(CN)(C(=O)Nc4cccc(OC(=O)N(C)C)c4)CC3)c12` [LX-7101], the pIC50 was 6.47.

For the next data set, the target named is T2, LIM domain kinase 2. Put plainly: Binding affinity to human LIMK2.
Details: not given
In turn, `Cc1c[nH]c2ncnc(N3CCC(CN)(C(=O)Nc4cccc(OC(=O)N(C)C)c4)CC3)c12` [LX-7101] had a pKd above 6.00.

Another data set concerns the target T2, LIM domain kinase 2. Put plainly: Inhibition of human full-length LIMK2 assessed as incorporation of P33 from ATP into biotinylated-cofilin substrate by scintillation counting analysis in presence of 2 uM ATP.
Details: not given
As for `Cc1c[nH]c2ncnc(N3CCN(C(=O)N[C@@H](C)c4ccccc4)[C@@H](C)C3)c12`, the pIC50 is 8.00.
Take `COc1cccc(NC(=O)N2CCN(c3ncnc4[nH]cc(C)c34)C[C@@H]2C)c1`: the pIC50 was 8.57.
For `Cc1c[nH]c2ncnc(N3CCN(C(=O)Nc4ccccc4)[C@@H](C)C3)c12`, the pIC50 is 8.92.
On the same count and under the same terms, for `Cc1c[nH]c2ncnc(N3CCN(C(=O)Cc4ccccc4)[C@@H](C)C3)c12` the value was 6.18.
On the same count and under the same terms, for `Cc1c[nH]c2ncnc(N3CCN(C(=O)N[C@H](C)c4ccccc4)[C@@H](C)C3)c12` the value was 6.74.
The same measure, in the same setting: for `Cc1c[nH]c2ncnc(N3CCN(C(=O)Nc4cccc(OC(=O)N(C)C)c4)C(C(C)(C)C)C3)c12` (centres undefined) the value was 7.59; for `Cc1c[nH]c2ncnc(N3CCN4C(=O)N(c5ccccc5)CC4C3)c12` (centres undefined), below 6.00; for `Cc1c[nH]c2ncnc(N3CCC(C(=O)Nc4cccc(OC(C)C)c4)CC3)c12`, 6.48.
`C=CCC1(C(=O)Nc2cccc(Cl)c2)CCN(c2ncnc3[nH]cc(C)c23)CC1`: the pIC50 was 8.72.
Consider `Cc1c[nH]c2ncnc(N3CCC(C)(C(=O)Nc4cccc(C(C)(C)C)c4)CC3)c12`, for which the pIC50 is 8.49.
With `C=CCC1(C(=O)Nc2cccc(OC(=O)N(C)C)c2)CCN(c2ncnc3[nH]cc(C)c23)CC1`, the pIC50 was 8.66.
Regarding `Cc1c[nH]c2ncnc(N3CCC(C)(C(=O)Nc4cccc(OC(=O)N(C)C)c4)CC3)c12`, the pIC50 was 8.32.
With `Cc1c[nH]c2ncnc(N3CCC(O)(C(=O)Nc4cccc(OC(=O)N(C)C)c4)CC3)c12`, the pIC50 is 6.86.
Regarding `Cc1c[nH]c2ncnc(N3CCC(C(=O)Nc4cccc(OC(=O)N(C)C)c4)(N(C)C)CC3)c12`, the pIC50 was 8.29.
Turning to `COCCOCC1(C(=O)Nc2cccc(OC(=O)N(C)C)c2)CCN(c2ncnc3[nH]cc(C)c23)CC1`, the pIC50 was 8.57.
On the same count and under the same terms, for `Cc1c[nH]c2ncnc(N3CCC(Cc4c[nH]cn4)(C(=O)Nc4cccc(OC(=O)N(C)C)c4)CC3)c12` the value was 9.00; for `Cc1c[nH]c2ncnc(N3CCC(CCN(C)C)(C(=O)Nc4cccc(OC(=O)N(C)C)c4)CC3)c12`, 8.14.
The same measure, in the same setting: as for `Cc1c[nH]c2ncnc(N3CC[C@H](C(=O)Nc4cccc(OC(=O)N(C)C)c4)[C@@H](C)C3)c12` (relative stereo), the figure is 6.68; as for `Cc1c[nH]c2ncnc(N3CC[C@H](C(=O)Nc4cccc(OC(=O)N(C)C)c4)[C@H](C)C3)c12` (relative stereo), 6.96; as for `Cc1c[nH]c2ncnc(N3CCC(CN)(C(=O)Nc4cccc(OC(=O)N(C)C)c4)CC3)c12` [LX-7101], 8.37.

For the origin of these results see ChEMBL document CHEMBL3352182, “Discovery and Development of LX7101, a Dual LIM-Kinase and ROCK Inhibitor for the Treatment of Glaucoma” (ACS Med Chem Lett, 2015).
